The target of the assay is NANOLUC® Luciferase (Oplophorus gracilirostris, UniProt Q9GV45, A31E/A60N/A81I/F95D/I117V/K70R/L54V/L99Q/M102K/N193R/P142E/Q151K/Q38R/Q45L/V71I/Y165I). Description: Km and Vmax substrate titration with NanoLuc luciferase (Example 8). The class given is biochemical. Particulars: NanoLuc 4 ng/ml; Renilla Glo buffer; Michaelis-Menten fit. As for the experimental part: Each compound to be screened was diluted to a concentration of 100 uM in Renilla Glo Luciferase Assay buffer (Promega Corporation) and then further diluted to 2×serial dilution in Renilla Glo Luciferase Assay Buffer. NANOLUC® luciferase and Renilla luciferase were diluted to a concentration of 4 ng/ml in OptiMEM+0.1% FBS. 50 ul of each compound dilution was then mixed with 50 ul of each enzyme dilution and incubated for 1 minute at room temperature. Light output for each compound was measured on a GLOMAX®-Multi+ luminometer. Km and Vmax were calculated for each enzyme/substrate combination using a GraphPad Prism Michaelis-Menten non-linear fit (FIGS. 1A-ID).
Chain of NANOLUC® Luciferase (Q9GV45 28-196 with tags or gaps with the stated changes limits assumed): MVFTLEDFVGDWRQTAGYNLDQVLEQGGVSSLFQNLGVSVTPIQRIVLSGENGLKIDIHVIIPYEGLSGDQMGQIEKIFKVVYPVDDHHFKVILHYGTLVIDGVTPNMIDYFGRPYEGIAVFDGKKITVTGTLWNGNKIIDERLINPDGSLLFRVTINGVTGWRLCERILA

Usually Km stands for the substrate concentration at which the rate is half of its maximum. For the molecule `O=c1c(Cc2ccco2)nc2c(Cc3ccccc3)[nH]c(-c3ccccc3)cn1-2` [Furimazine, 8-benzyl-2-(furan-2-ylmethyl)-6-phenylimidazo[1,2-a]pyrazin-3(7H)-one], the Km is 9.37 µM.

These data come from patent US10000500B2 (PROMEGA CORPORATION, priority 2016, dated 2018).
